In one data set the test system is diamond back moth. In words: Test 4: Effect on Diamond Back Moth. Particulars: Plutella. The data set is classed as in vivo. The protocol: (§1) To a mixture of 20 parts of the compound of the present invention and 20 parts of Sorpol SM-200 (registered tradename for the product supplied by Toho Chemical Industrial Co., Ltd.) was added 60 parts of xylol, and the mixture was suffciently blended. The obtained emulsifiable concentrate was diluted at a predetermined concentration with distilled water, and the obtained dilution was used.
Cabbage leaves were spread in a plastic cup, and 10 third-instar larvae of diamond back moth were set free in the cup.
A chemical dilution having a concentration of 100 or 20 ppm, prepared in the same manner as described in Test 1, was applied from an applicator at a rate of 3 ml per cup.
After scattering of the chemical dilution, the cup was covered, and after 24 hours, the numbers of killed and living larvae were counted and the mortality was calculated. The test was made on three cups and the average value was calculated.

The test system of data set [1] is tobacco cutworm. In words: Test 2: Tobacco Cutworm Larva Dipping Test, mortality after 24 hours. It is filed as in vivo. The protocol:
as §1
A dilution having a chemical concentration of 100 or 20 ppm was prepared in the same manner as described in Test 1.
Second-instar and fifth-instar larvae of tobacco cutworm were dipped in the dilution for 5 seconds, and the excessive dilution was removed by a filter paper. Then, the larvae were set free in a plastic cup and an artificial diet was supplied thereto. The cup was allowed to stand still in a thermostat chamber maintained at 25° C. After 24 hours, the numbers of the killed and living larvae were counted and the mortality was calculated. The test was made on three cups and the result was expressed by an average value.

Data set [2] in a line: Test 9: Toxicity Test (acute oral toxicity, mice). Particulars: mouse, in vivo, po. How it is done: A predetermined amount of a solution or suspension of a test compound in corn oil was orally administered to male mice having a body weight of 19 to 23 g (0.2 ml per 10 g of the body weight). After 7 days, the number of killed mice was counted and the influences on the mice were examined.

A further data set concerns German cockroach. Put plainly: Test 7: Effect on German Cockroach. It is filed as in vivo. Particulars: Blattella germanica, male adults, agonized and killed after 24 hours, read-out: Mortality (%); for mortality at 10 mg/m2: 10 mg/m^2; for mortality at 50 mg/m2: 50 mg/m^2. How it is done:
as §1
The bottom face of a high Petri dish having a diameter of 9 cm and a height of 9 cm was treated with 50 or 10 mg/m^2 of a test compound and the dish was air-dried. In order to prevent the adults from escaping from the dish, the inner wall of the dish was treated with butter. Then, 10 male adults of German cockroach were set free in each dish, and the dish was placed in a thermostat chamber maintained at 25° C. After 24 hours, the number of agonized and killed adults was counted. The test was made on two dishes and the average value was calculated.

Data set [3] has as its system resistant green rice leafhopper (collected at Nakagawara). In words: Test 3: Effect on Resistant Green Rice Leafhopper (collected at Nakagawara). It is filed as in vivo, Nephotettix cincticeps Uhler (Green rice leafhopper). The conditions noted are these: Nephotettix cincticeps, 24 h, read-out: Mortality (%), Green Rice Leafhopper Collected at Nakagawara. How it is done:
as §1
(§2) Seedlings (having 2 to 3 leaves) of paddy rice were hydroponically cultured in a pot having a diameter of 5 cm. A chemical dilution having a concentration of 100 or 20 ppm, prepared in the same manner as described in Test 1, was applied with a sprayer at a rate of 3 ml per pot. The treated seedlings were air-dried and covered with a metal net cylinder, and female adults of resistant green rice leafhopper (collected at Nakagawara) and sensitive green rice leafhopper (collected at Chigasaki) were set, respectively, free in the pot at a density of 10 adults per pot. After 24 hours, the numbers of killed and living adults were counted and the mortality was calculated. The test was made on three pots and the average value was calculated.

The test system of data set [4] is tobacco cutworm. Put plainly: Test 1: Effect on Tobacco Cutworm (leaf immersion), mortality after 24 hours. The data set is classed as in vivo. The conditions noted are these: second-instar larvae, 25° C. The protocol: as §1
An emulsifiable concentrate of a test compound prepared according to the method described in Formulation Example 1 was diluted to a concentration of 100 or 20 ppm. Sweet-potato leaves were immersed in the dilution for 10 seconds, air-dried and placed in a plastic cup having a diameter of 10 cm. Then second-instar larvae of tobacco cutworm were set free in the cup. The cup was allowed to stand still in a thermostat chamber maintained at 25° C. After 24 hours, the numbers of killed and living larvae were counted and the mortality was calculated. The obtained result was expressed by an average value obtained from the mortality calculated in three test cups.

For data set [5], the system named is sensitive green rice leafhopper (collected at Chigasaki). Put plainly: whole plant or invertebrate. The conditions noted are these: Nephotettix cincticeps, sensitive female adults, 24 hours, read-out: Mortality (%), Green Rice Leafhopper Collected at Chigasaki. The data set is classed as in vivo. How it is done:
as §1, §2

Setting [6] is: 24 h, read-out: Motality (%), Fifth-Instar Larvae.
[7] abbreviates: 20 ppm, third-instar larvae, 24 hours, read-out: Mortality (%).
[8] abbreviates: 100 ppm, third-instar larvae, 24 hours, read-out: Mortality (%).
[9] abbreviates: 20 ppm, fifth-instar larvae, 24 hours, read-out: Motality (%), Fifth-Instar Larvae.
The mark [10] stands for this setting: 20 ppm, second-instar larvae, 24 hours, read-out: Motality (%), Second-Instar Larvae.
Where [11] appears, read: 100 ppm, fifth-instar larvae, 24 hours, read-out: Motality (%), Fifth-Instar Larvae.
[12] abbreviates: 100 ppm, second-instar larvae, 24 hours, read-out: Motality (%), Second-Instar Larvae.

Where two headings read alike, the source gives them in different places. Bounds are passed on as bounds.

Consider `CNC(=O)ON=C(C)SC` [Comparative Compound (f), S-methyl N-(methylcarbamoyloxy)thioacetoamidate, reference compound], for which the mortality at 20 ppm in the data set with diamond back moth (24 h) came to 0%; in the data set on tobacco cutworm [1] (setting [6]), 0%; in the data set on tobacco cutworm [1] (24 h, read-out: Motality (%), Second-Instar Larvae), 30%. Also, the mortality at 100 ppm in the data set with diamond back moth (24 h) was found to be 10%; with tobacco cutworm [1] (setting [6]), 80%. For the same molecule, in data set [2], the LD50 (as a rule, the dose expected to kill half of the subjects tested) at 168 h came to 28 mg/kg.

As for `CC(C)(COCc1cccc(Oc2ccc(F)cc2)c1)c1ccc(Cl)c(Cl)c1` [Compound 17, 3-(4-fluorophenoxy)benzyl 2-(3,4-dichlorophenyl)-2-methylpropyl ether], the mortality at 20 ppm with diamond back moth (setting [7]) is 90%; in data set [3], 100%; with tobacco cutworm [4], 80%; in data set [5], 100%. Also, the mortality at 100 ppm (in the data set on diamond back moth (setting [8]); in data set [3]; with tobacco cutworm [4]; in data set [5]) was 100% each time. Besides, in the data set on German cockroach, the mortality at 10 mg/m2 was 100%. Also, the mortality at 50 mg/m2 in the data set on German cockroach was found to be 100%. In addition, the LD50 at 168 h in data set [2] was above 500 mg/kg.

In the case of `CC(C)(COCc1cccc(Oc2cccc(Cl)c2)c1)c1ccc(Cl)c(Cl)c1` [Compound 38, 3-(3-Chlorophenoxy)benzyl 2-(3,4-dichlorophenyl)-2-methylpropyl ether], in the data set with German cockroach, the mortality at 10 mg/m2 came out at 90% and the mortality at 50 mg/m2 turned out to be 100%. Also, in data set [3], the mortality at 20 ppm stood at 95% and the mortality at 100 ppm was 100%. In addition, in data set [5], the mortality at 20 ppm was 80% and the mortality at 100 ppm was 100%. In data set [2], the LD50 at 168 h was above 500 mg/kg.

Consider `CC(C)(COCc1cccc(Oc2ccccc2)c1)c1ccc([N+](=O)[O-])cc1` [Compound 43, 3-Phenoxybenzyl 2-(4-nitrophenyl)-2-methylpropyl ether], for which, in the data set on German cockroach, the mortality at 10 mg/m2 came to 100%. Also, the mortality at 50 mg/m2 in the data set with German cockroach amounted to 100%. The mortality at 20 ppm in data set [3] worked out at 100%; in the data set with tobacco cutworm [4], 85%; in data set [5], 90%. The mortality at 100 ppm (in data set [3]; in the data set on tobacco cutworm [4]; in data set [5]) was 100% in each case. This molecule yielded an LD50 at 168 h in data set [2] above 500 mg/kg.

`CC(C)(COCc1cccc(Oc2ccccc2)c1)c1ccc(OC2CCCC2)cc1` [Compound 61, 3-Phenoxybenzyl 2-(4-cyclopentyloxyphenyl)-2-methylpropyl ether]: in the data set with German cockroach, the mortality at 10 mg/m2 came out at 70% and the mortality at 50 mg/m2 was determined as 100%. Further, in data set [3], the mortality at 20 ppm stood at 100% and the mortality at 100 ppm amounted to 100%. In addition, in data set [5], the mortality at 20 ppm stood at 100% and the mortality at 100 ppm came to 100%. The molecule further displayed an LD50 at 168 h in data set [2] above 500 mg/kg.

For the molecule `CC(C)(COCc1cccc(Oc2ccccc2)c1)c1ccc(I)cc1` [Compound 65, 3-Phenoxybenzyl 2-(4-iodophenyl)-2-methylpropyl ether], in the data set with German cockroach, the mortality at 10 mg/m2 amounted to 90% and the mortality at 50 mg/m2 is 100%. Further, in data set [3], the mortality at 20 ppm was 100% and the mortality at 100 ppm was 100%. Further, in the data set on tobacco cutworm [4], the mortality at 20 ppm came out at 90% and the mortality at 100 ppm amounted to 100%. In addition, in data set [5], the mortality at 20 ppm was 100% and the mortality at 100 ppm was found to be 100%. This molecule also yielded an LD50 at 168 h in data set [2] above 500 mg/kg.

Regarding `C=COc1ccc(C(C)(C)COCc2cccc(Oc3ccccc3)c2)cc1` [Compound 67, 3-Phenoxybenzyl 2-(4-vinyloxyphenyl)-2-methylpropyl ether], the mortality at 20 ppm was determined as 90% in the data set with diamond back moth (setting [7]), 100% with tobacco cutworm [1] (setting [9]), 100% with tobacco cutworm [1] (setting [10]) and 90% in the data set on tobacco cutworm [4]. Further, the mortality at 100 ppm in the data set with diamond back moth (setting [8]), in the data set with tobacco cutworm [1] (setting [11]), with tobacco cutworm [1] (setting [12]) and in the data set with tobacco cutworm [4] was 100% throughout. Further, in the data set on German cockroach, the mortality at 10 mg/m2 came out at 100%. In addition, the mortality at 50 mg/m2 with German cockroach worked out at 100%. For the same molecule, the LD50 at 168 h in data set [2] was above 500 mg/kg.

In the case of `CC(C)(COCc1cccc(Oc2ccccc2)c1)c1ccc(OC(F)(F)CI)cc1` [Compound 74, 3-Phenoxybenzyl 2-[4-(1,1-difluoro-2-iodoethoxy)phenyl]-2-methylpropyl ether], the mortality at 10 mg/m2 in the data set with German cockroach was found to be 100%. In the data set with German cockroach, the mortality at 50 mg/m2 is 100%. For the same molecule, the mortality at 20 ppm worked out at 50% in the data set on tobacco cutworm [1] (setting [9]), 70% in the data set on tobacco cutworm [1] (setting [10]) and 100% in the data set with tobacco cutworm [4]. Besides, the values for the mortality at 100 ppm with tobacco cutworm [1] (setting [11]), with tobacco cutworm [1] (setting [12]) and with tobacco cutworm [4] were 80%, 100% and 100%, respectively. Moreover, the 50% lethal dose (LD50) at 168 h in data set [2] was above 500 mg/kg.

On to `CC(F)(F)Oc1ccc(C(C)(C)COCc2cccc(Oc3ccccc3)c2)cc1` [Compound 79, 3-Phenoxybenzyl 2-[4-(1,1-difluoroethoxy)phenyl]-2-methylpropyl ether], for which the mortality at 10 mg/m2 in the data set with German cockroach was determined as 100%. Moreover, in the data set on German cockroach, the mortality at 50 mg/m2 came to 100%. The mortality at 20 ppm with tobacco cutworm [1] (setting [9]) was determined as 50%; in the data set with tobacco cutworm [1] (setting [10]), 80%. Moreover, the mortality at 100 ppm in the data set on tobacco cutworm [1] (setting [11]) was 90%; in the data set on tobacco cutworm [1] (setting [12]) it was 100%. Moreover, the LD50 at 168 h in data set [2] was above 500 mg/kg.

As to `CCOc1ccc(Oc2cccc(COCC(C)(C)c3ccc(OCC)cc3)c2)cc1` [Compound 101, 3-(4-Ethoxyphenoxy)benzyl 2-(4-ethoxyphenyl)-2-methylpropyl ether], the mortality at 20 ppm (with diamond back moth (setting [7]); in data set [3]; with tobacco cutworm [1] (setting [9]); with tobacco cutworm [1] (setting [10]); in the data set with tobacco cutworm [4]; in data set [5]) was 100% throughout. In addition, the mortality at 100 ppm (with diamond back moth (setting [8]); in data set [3]; with tobacco cutworm [1] (setting [11]); in the data set with tobacco cutworm [1] (setting [12]); with tobacco cutworm [4]; in data set [5]) was 100% each time. The LD50 at 168 h in data set [2] was above 500 mg/kg.

As for `CC(C)(COCc1cccc(Oc2ccccc2)c1)c1ccc(SC(F)(F)F)cc1` [Compound 104, 3-Phenoxybenzyl 2-(4-trifluoromethylthiophenyl)-2-methylpropyl ether], the mortality at 20 ppm with diamond back moth (setting [7]) worked out at 70%. In the data set on diamond back moth (setting [8]), the mortality at 100 ppm amounted to 100%. In the data set on German cockroach, the mortality at 10 mg/m2 was found to be 90% and the mortality at 50 mg/m2 is 100%. Moreover, the LD50 at 168 h in data set [2] is above 500 mg/kg.

As to `Cc1ccc(C(C)(C)COCc2cccc(Oc3ccccc3)c2)cc1C` [Compound 109], in the data set on German cockroach, the mortality at 10 mg/m2 came out at 100% and the mortality at 50 mg/m2 was found to be 100%. In data set [3], the mortality at 20 ppm amounted to 90% and the mortality at 100 ppm stood at 100%. Further, in data set [5], the mortality at 20 ppm was found to be 70% and the mortality at 100 ppm was found to be 100%. In data set [2], this molecule displayed an LD50 at 168 h above 500 mg/kg.

The values above are taken from patent US4570005A, “Process for the preparation of 2-arylpropyl ether or thioether derivatives” (priority 1980, dated 1986).
